Literature values in patent US9662315B2, “Ameliorating drug-induced elevations in blood pressure by adjunctive use of antihypertensive drugs” (Kitov Pharmaceuticals Ltd., priority 2008, dated 2017).

Settings: per FDA approved drug labeling; rofecoxib compared with placebo control patients

Structure (SMILES) | high blood pressure / hypertension rate in treated patients
Cc1ccc(-c2cc(C(F)(F)F)nn2-c2ccc(S(N)(=O)=O)cc2)cc1 [celecoxib] | increased rate of hypertension
CS(=O)(=O)c1ccc(C2=C(c3ccccc3)C(=O)OC2)cc1 [rofecoxib] | occurring more frequently
